Values quoted from earlier work, collected in US20010041741A1, “Composition for improvement of cellular nutrition and mitochondrial energetics” (priority 1997, published 2001).
Where two headings read alike, the source gives them in different places. Blank lines part the entries; values can stand above or below the compound they belong to.

Tests used:
[1] = system: patients with heart failure; conditions: creatine supplement
[2] = system: patients suffering from congestive heart failure; conditions: oral dose of 1 gram three times per day
[3] = system: in-patients with heart failure and on long-term furosemide therapy
[4] = system: animals and patients with heart failure or myocardial ischemia; conditions: L-carnitine 3-5 grams, proprionyl-1-carnitine 1.5-3.0 grams
[5] = not given; remark: listed apart in the source

SMILES: CN(CC(=O)O)C(=N)N [creatine, Creatine]
Cardiac ejection fraction [1]: did not increase
Skeletal muscle creatine phosphate, muscle strength and endurance [1]: significantly increased

SMILES: NCCS(=O)(=O)O [taurine, 2-aminoethanesulfonic acid]
Hemodynamic state and functional capacity [2]: improve both hemodynamic state and functional capacity
Tolerance [2]: extremely well tolerated

Increase of mean steady state level in plasma (after 4 days of dosing at 100 mg 3 times daily): 4-7 fold
Liver enzymes (LDH, SGOT) (doses of 300 mg/day): asymptomatic elevations
T½ of plasma decay (oral): 34 h
Time of plasma level peak (oral absorption): 5 to 10 h
Share of an oral dose taken up by the myocardium (oral, large hepatic first pass effect): 2-5%
SMILES: COC1=C(OC)C(=O)C(C/C=C(\C)CC/C=C(\C)CC/C=C(\C)CC/C=C(\C)CC/C=C(\C)CC/C=C(\C)CC/C=C(\C)CC/C=C(\C)CC/C=C(\C)CCC=C(C)C)=C(C)C1=O [Ubiquinone, 2,3 dimethoxy-5 methyl-6-decaprenyl benzoquinone]
Side effects (in vivo): virtually absent

SMILES: Cc1ncc(C[n+]2csc(CCO)c2C)c(N)n1 [thiamine, Thiamine]
Mean left ventricular ejection fraction ([3]; after one week, 200 mg intravenous thiamine): increased significantly
Increase of left ventricular ejection fraction ([3]; after six weeks of oral thiamine supplementation, 200 mg/day): 22%
Diuresis, excretion of sodium and water ([3]; within two days of thiamine supplementation, versus placebo): significant diuresis with increased excretion of sodium and water

Time of peak plasma concentration ([5]; following oral administration): 3 h
T½ of plasma decay ([5]; following oral administration): 3 to 4 h
Bioavailability ([5]; oral): 5-20%
SMILES: C[N+](C)(C)C[C@H](O)CC(=O)[O-] [L-carnitine, 3-hydroxy-4-N-trimethylaminobutyric acid]
Hemodynamics [4]: significant hemodynamic improvement
Tolerance / adverse effects ([5]; in vivo): well tolerated and no adverse effects have been described

SMILES: CCC(=O)O[C@H](CC(=O)[O-])C[N+](C)(C)C [proprionyl-1-carnitine, Proprionyl-1-carnitine]
Hemodynamics [4]: significant hemodynamic improvement
